In PubChem BioAssay (NCI):
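Following 48 hours of exposure in 96-well plates, responses at five concentrations were used to interpolate endpoints linearly. TGI marks complete inhibition of growth.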

What was measured:
Experiment in all cases: NCI tumour cell line growth inhibition, 48 h
786-0 renal = system: 786-0 renal
A498 renal = system: A498 renal
A549 NSCLC = system: A549 NSCLC
ACHN renal = system: ACHN renal
BT-549 breast = system: BT-549 breast
CAKI-1 renal = system: CAKI-1 renal
CCRF-CEM leukemia = system: CCRF-CEM leukemia
COLO 205 colon = system: COLO 205 colon
DU-145 prostate = system: DU-145 prostate
EKVX NSCLC = system: EKVX NSCLC
HCC-2998 colon = system: HCC-2998 colon
HCT-116 colon = system: HCT-116 colon
HCT-15 colon = system: HCT-15 colon
HL-60(TB) leukemia = system: HL-60(TB) leukemia
HOP-62 NSCLC = system: HOP-62 NSCLC
HOP-92 NSCLC = system: HOP-92 NSCLC
HS 578T breast = system: HS 578T breast
HT29 colon = system: HT29 colon
IGROV1 ovarian = system: IGROV1 ovarian
K-562 leukemia = system: K-562 leukemia
KM12 colon = system: KM12 colon
LOX IMVI melanoma = system: LOX IMVI melanoma
M14 melanoma = system: M14 melanoma
MALME-3M melanoma = system: MALME-3M melanoma
MCF7 breast = system: MCF7 breast
MDA-MB-231 breast = system: MDA-MB-231 breast
MDA-MB-435 = system: MDA-MB-435
MDA-N = system: MDA-N
MOLT-4 leukemia = system: MOLT-4 leukemia
NCI-H226 lung = system: NCI-H226 lung
NCI-H23 lung = system: NCI-H23 lung
NCI-H460 lung = system: NCI-H460 lung
NCI-H522 lung = system: NCI-H522 lung
NCI/ADR-RES ovarian = system: NCI/ADR-RES ovarian
OVCAR-3 ovarian = system: OVCAR-3 ovarian
OVCAR-4 ovarian = system: OVCAR-4 ovarian
OVCAR-5 ovarian = system: OVCAR-5 ovarian
OVCAR-8 ovarian = system: OVCAR-8 ovarian
PC-3 prostate = system: PC-3 prostate
RPMI-8226 leukemia = system: RPMI-8226 leukemia
RXF 393 renal = system: RXF 393 renal
SF-268 CNS = system: SF-268 CNS
SF-295 CNS = system: SF-295 CNS
SF-539 CNS = system: SF-539 CNS
SK-MEL-2 melanoma = system: SK-MEL-2 melanoma
SK-MEL-28 melanoma = system: SK-MEL-28 melanoma
SK-MEL-5 melanoma = system: SK-MEL-5 melanoma
SK-OV-3 ovarian = system: SK-OV-3 ovarian
SN12C renal = system: SN12C renal
SNB-19 CNS = system: SNB-19 CNS
SNB-75 CNS = system: SNB-75 CNS
SR leukemia = system: SR leukemia
SW-620 colon = system: SW-620 colon
T-47D breast = system: T-47D breast
TK-10 renal = system: TK-10 renal
U251 CNS = system: U251 CNS
UACC-257 melanoma = system: UACC-257 melanoma
UO-31 renal = system: UO-31 renal

Measured: TGI

COc1ccc(/C=C2/N=C(N/N=C\C(O)C(O)C(O)C(O)CO)NC2=O)cc1 (stereo not drawn)
> 100 µM: 786-0 renal | A498 renal | A549 NSCLC | ACHN renal | BT-549 breast | CAKI-1 renal | CCRF-CEM leukemia | COLO 205 colon | DU-145 prostate | EKVX NSCLC | HCC-2998 colon | HCT-116 colon | HCT-15 colon | HL-60(TB) leukemia | HOP-62 NSCLC | HOP-92 NSCLC | HS 578T breast | HT29 colon | IGROV1 ovarian | K-562 leukemia | KM12 colon | LOX IMVI melanoma | M14 melanoma | MALME-3M melanoma | MCF7 breast | MDA-MB-231 breast | MDA-MB-435 | MDA-N | MOLT-4 leukemia | NCI-H226 lung | NCI-H23 lung | NCI-H460 lung | NCI-H522 lung | NCI/ADR-RES ovarian | OVCAR-3 ovarian | OVCAR-4 ovarian | OVCAR-5 ovarian | OVCAR-8 ovarian | PC-3 prostate | RPMI-8226 leukemia | RXF 393 renal | SF-268 CNS | SF-295 CNS | SF-539 CNS | SK-MEL-2 melanoma | SK-MEL-28 melanoma | SK-MEL-5 melanoma | SK-OV-3 ovarian | SN12C renal | SNB-19 CNS | SNB-75 CNS | SR leukemia | SW-620 colon | T-47D breast | TK-10 renal | U251 CNS | UACC-257 melanoma | UO-31 renal
